The source of these data is ChEMBL document CHEMBL5316345, “Discovery of the Potent and Selective MC4R Antagonist PF-07258669 for the Potential Treatment of Appetite Loss” (J Med Chem, 2023).

For orientation: IC50 means the midpoint of a concentration-inhibition curve. For orientation: Ki means the equilibrium dissociation constant of an inhibitor or competing ligand from its target. For orientation: logD means lipophilicity at a set pH, counting ionised and neutral species. High values mean a more lipophilic compound, low ones a more hydrophilic compound.

The nature of data set [1]: Efflux ratio of apparent permeability from basolateral to apical side over apical to basolateral side in MDCK-MDR1 cells. It is filed as ADME, cell-based, Canis lupus familiaris. The note with it: dog.
A short description of data set [2]: Metabolic stability in human hepatocyte assessed as intrinsic clearance measured per million cells HPLC/UV/MS analysis. It is filed as ADME, cell-based. The following applies: hepatocytes, read-out: CLH.
Data set [3] deals with T1, Melanocortin receptor 4 (Homo sapiens, UniProt P32245). Description: Antagonist activity at human MC4R in CHO cells measured for 24 hrs. It is filed as cell-based.
Data set [4] has as its target T1, Melanocortin receptor 4. Description: Antagonist activity at human MC4R in CHO cells measured for 24 hrs in presence of alpha-MSH. It is filed as cell-based.
A short description of data set [5]: Octanol-water distribution coefficient, logD of the compound at pH 7.4 by RP-HPLC analysis. It is filed as physicochemical.
Data set [6] concerns the target Voltage-gated inwardly rectifying potassium channel KCNH2 (Homo sapiens, UniProt Q12809). Description: Inhibition of hERG expressed in CHO cells stably at -80 mV holding potential by automated patch clamp method. It is filed as toxicity, cell-based.
Data set [7] in a line: Metabolic stability in human hepatocyte assessed as intrinsic clearance measured per 10^6 cells HPLC/UV/MS analysis. Type of data set: ADME, cell-based. The note with it: hepatocytes, read-out: CLH.
The target in data set [8] is Cytochrome P450 3A (Homo sapiens, UniProt P08684+P20815+Q9HB55+P24462). Description: Time dependent inhibition of CYP3A (unknown origin) at 10 uM relative to control. Type of data set: ADME, protein assay.
The nature of data set [9]: Lipophilicity, logD of compound at pH 7.4 by shake flask method. It is filed as physicochemical. The following applies: buffer.
In data set [10] the target is T1, Melanocortin receptor 4. Description: Antagonist activity at human MC4R expressed in CHO cells assessed as decrease in alpha-MSH induced cAMP level incubated for 1 hr by microplate reader analysis. Type of data set: functional, cell-based. In general terms: Changes in cAMP serve as a functional read-out for many G protein-coupled receptors.

T1 sequence (P32245 whole entry): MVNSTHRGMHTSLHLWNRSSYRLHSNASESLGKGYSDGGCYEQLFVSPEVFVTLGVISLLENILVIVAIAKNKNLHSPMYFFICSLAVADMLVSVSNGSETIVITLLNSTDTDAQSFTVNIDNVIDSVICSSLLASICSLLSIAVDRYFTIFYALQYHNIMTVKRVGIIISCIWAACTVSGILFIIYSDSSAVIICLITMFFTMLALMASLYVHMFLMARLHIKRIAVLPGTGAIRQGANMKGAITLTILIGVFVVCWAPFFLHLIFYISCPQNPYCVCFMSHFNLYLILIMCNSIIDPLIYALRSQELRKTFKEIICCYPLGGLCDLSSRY
Voltage-gated inwardly rectifying potassium channel KCNH2, sequence (Q12809 whole entry): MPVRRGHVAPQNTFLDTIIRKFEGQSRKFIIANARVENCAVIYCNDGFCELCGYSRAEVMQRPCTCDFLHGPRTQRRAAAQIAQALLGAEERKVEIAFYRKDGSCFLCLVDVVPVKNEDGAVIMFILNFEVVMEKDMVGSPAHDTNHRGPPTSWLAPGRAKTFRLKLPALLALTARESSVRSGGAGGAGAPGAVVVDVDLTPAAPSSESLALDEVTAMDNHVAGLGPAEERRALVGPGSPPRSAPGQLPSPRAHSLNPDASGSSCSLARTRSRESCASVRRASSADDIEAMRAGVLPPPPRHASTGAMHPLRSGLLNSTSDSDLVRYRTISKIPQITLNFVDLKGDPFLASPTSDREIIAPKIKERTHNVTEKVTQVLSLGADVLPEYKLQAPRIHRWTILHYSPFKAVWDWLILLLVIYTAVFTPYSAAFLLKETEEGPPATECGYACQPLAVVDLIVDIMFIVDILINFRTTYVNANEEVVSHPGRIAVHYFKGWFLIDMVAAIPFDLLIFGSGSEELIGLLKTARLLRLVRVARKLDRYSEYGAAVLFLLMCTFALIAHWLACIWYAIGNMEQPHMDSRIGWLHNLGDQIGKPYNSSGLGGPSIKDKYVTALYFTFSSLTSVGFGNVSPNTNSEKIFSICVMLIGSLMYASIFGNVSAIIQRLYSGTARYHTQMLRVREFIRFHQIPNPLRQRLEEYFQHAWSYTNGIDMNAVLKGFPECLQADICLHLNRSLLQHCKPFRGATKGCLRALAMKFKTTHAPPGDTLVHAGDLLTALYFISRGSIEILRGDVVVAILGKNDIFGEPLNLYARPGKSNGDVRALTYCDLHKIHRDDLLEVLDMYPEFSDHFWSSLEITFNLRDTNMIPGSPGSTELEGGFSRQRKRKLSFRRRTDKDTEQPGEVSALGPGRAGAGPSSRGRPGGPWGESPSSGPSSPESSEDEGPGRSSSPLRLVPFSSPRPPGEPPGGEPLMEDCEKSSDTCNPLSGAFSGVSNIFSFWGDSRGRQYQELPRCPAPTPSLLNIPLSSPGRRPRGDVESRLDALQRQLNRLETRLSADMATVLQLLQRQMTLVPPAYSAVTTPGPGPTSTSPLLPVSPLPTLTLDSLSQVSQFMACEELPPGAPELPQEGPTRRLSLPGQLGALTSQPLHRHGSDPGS

Consider `COc1cc([C@@H](C)C(=O)N2CC[C@@]3(CCc4cc(-c5nc(C(F)(F)F)n(C)n5)c(C)nc4N3)C2)c(F)cn1`, for which the Ratio in data set [1] came to 4.8. Further, in [2], the hepatocyte CLint came to 12 µL/min/1e6 cells. For the same molecule, the IC50 in data set [3] was 0.0084 µM. Also, in data set [4], the Ki amounted to 0.00045 µM.

Take `COc1ccc2nc(N[C@H]3CCN(C(=O)Cc4cc(F)cc(F)c4)C3)c(C)cc2c1`: the inhibition constant (Ki) in data set [4] came out at 0.91 µM.

As to `Cc1nc2c(cc1-c1cnn(C)c1)CC1(CCN(C(=O)Cc3ccc(F)cc3)C1)N2` (racemic), the Ratio in data set [1] came to 34. Besides, in data set [5], the logD was determined as 1.9. For the same molecule, the IC50 in data set [3] was determined as 20 µM. Moreover, in data set [4], the inhibition constant (Ki) is > 2.2 µM.

For `COc1ccc2nc(N(C(=O)Cc3cc(F)cc(F)c3)[C@H]3CCNC3)ccc2c1`, the concentration for half-maximal inhibition (IC50) in data set [3] was 0.0038 µM.

With `COc1cc([C@@H](C)C(=O)N2CC[C@H](Nc3ccc(-c4nc(C(F)F)n(C)n4)c(C)n3)C2)c(F)cn1`, it took 25 µM to reach half-maximal inhibition in data set [6] (IC50). Also, the logD in data set [5] amounted to 3.4. Further, the hepatocyte CLint in data set [7] and in data set [2] was 15 µL/min/1e6 cells throughout. The same molecule returned a K in data set [8] of 0.015 min⁻¹.

Turning to `COc1cc(CC(=O)N2CC[C@H](Nc3ccc(-c4nc(C(F)F)n(C)n4)c(C)n3)C2)ccn1`, in [2], the hepatocyte CLint was found to be 7.1 µL/min/1e6 cells. For the same molecule, the Ki in [4] is 0.027 µM.

In turn, `[2H]C([2H])([2H])n1nc(-c2ccc(N[C@H]3CCN(C(=O)[C@H](C)c4cc(OC)ncc4F)C3)nc2C)nc1C(F)F` displayed a half-inhibitory concentration (IC50) in data set [6] of 28 µM. In data set [7], the hepatocyte CLint is 18 µL/min/1e6 cells.

With `COc1cc([C@@H](C)C(=O)N2CC[C@H](Nc3ccc(-c4n[nH]c(C(F)F)n4)c(C)n3)C2)c(F)cn1`, in data set [6], the IC50 stood at 19 µM. Further, the hepatocyte CLint in [7] was determined as 7.5 µL/min/1e6 cells. In addition, the Ki in data set [4] amounted to 0.062 µM.

For `Cc1nc2c(cc1-c1cnn(C)c1)CC[C@@]1(CCN(C(=O)Cc3ccc(F)cc3)C1)N2`, in [1], the Ratio was found to be 18. Moreover, in data set [2], the hepatocyte CLint is 6.5 µL/min/1e6 cells. This molecule also yielded a logD in data set [9] of 2.6. In addition, in data set [3], half-maximal inhibition (IC50) required 0.039 µM. Moreover, the Ki in data set [4] came out at 0.0006 µM.

In turn, `Cc1nc2c(cc1-c1cnn(C)c1)OC[C@@]1(CCN(C(=O)Cc3ccc(F)cc3)C1)N2` yielded a logD in data set [5] of 2.4. In addition, the hepatocyte CLint in [2] was determined as 4.9 µL/min/1e6 cells.

`COc1cc([C@@H](C)C(=O)N2CC[C@H](Nc3ccc(-c4ncccn4)c(C)n3)C2)c(F)cn1`: the Ratio in data set [1] was determined as 4.9. The hepatocyte CLint in data set [2] was 7.9 µL/min/1e6 cells. The molecule further registered a log distribution coefficient (logD) in data set [9] of 2.6. In addition, in data set [4], the inhibition constant (Ki) is 0.0064 µM.

In the case of `Cc1nc(N[C@H]2CCN(C(=O)Cc3ccc(F)cc3)C2)ccc1-c1ncn(C)n1`, in [1], the Ratio was determined as 19. Besides, the hepatocyte CLint in [7] turned out to be 4.5 µL/min/1e6 cells. For the same molecule, in data set [8], the K was found to be 0.007 min⁻¹. Further, inhibition in [3] was half-maximal at 0.24 µM (IC50). Besides, the Ki in data set [4] came out at 0.019 µM.

Consider `COc1cc(CC(=O)N2CC[C@H](Nc3ccc(-c4nc(C(F)(F)F)n(C)n4)c(C)n3)C2)cc(OC)c1`, for which the log distribution coefficient (logD) in [5] is 3.6. Also, in [2], the hepatocyte CLint amounted to 34 µL/min/1e6 cells.

In the case of `COc1cc([C@@H](C)C(=O)N2CC[C@H](Nc3ccc(-c4nc(C(F)(F)F)n(C)n4)c(C)n3)C2)c(F)cn1`, in [1], the Ratio was found to be 6.1. In data set [5], this molecule yielded a logD of 4.2. In addition, the hepatocyte CLint in data set [2] came out at 15 µL/min/1e6 cells.

Take `COc1cc([C@@H](C)C(=O)N2CC[C@H](Nc3ccc(-c4nc(C(F)F)n(C)n4)c(C)n3)C2)ccn1`: in data set [1], the Ratio is on record as 16. Further, in data set [2], the hepatocyte CLint worked out at 10 µL/min/1e6 cells. Further, in [9], the pH-dependent lipophilicity (logD) was found to be 2.7. For the same molecule, the inhibition constant Ki in [4] worked out at 0.0014 µM.

For `COc1cc([C@@H](C)C(=O)N2CC[C@@]3(CCc4cc(-c5nc(C(F)F)n(C)n5)c(C)nc4N3)C2)c(F)cn1`, the Ratio in data set [1] was found to be 8.7. The hepatocyte CLint in data set [2] amounted to 11 µL/min/1e6 cells. Also, the log distribution coefficient (logD) in data set [9] was 3.2. Moreover, the Ki in [4] was 0.00049 µM.

Regarding `COc1ccc2nc(N[C@H]3CCN(C(=O)Cc4cc(F)cc(F)c4)C3)ccc2c1`, in data set [1], the Ratio came to 8.6. Also, the IC50 came to 0.36 µM in data set [6], 0.0078 µM in data set [3] and 0.36 µM in data set [10]. In data set [7], the hepatocyte CLint is 28 µL/min/1e6 cells. This molecule came in with a K in data set [8] of 0.61 min⁻¹. The inhibition constant (Ki) in [4] turned out to be 0.00062 µM.

On to `Cc1nc(N[C@H]2CCN(C(=O)Cc3ccc(F)cc3)C2)ccc1-c1nc(C(F)(F)F)n(C)n1`, for which the Ratio in data set [1] is recorded as 6.1. In addition, the values for the IC50 in data set [6] and in [3] were 78 µM and 0.21 µM, respectively. Also, the hepatocyte CLint in [7] stood at 20 µL/min/1e6 cells. The molecule further came in with a K in data set [8] of 0.006 min⁻¹. Moreover, in data set [4], the inhibition constant Ki was 0.0055 µM.
